Common to all, as to type: cell-based, human
In assay [1] the test system is MDA-MB-468 (GFP-LC3) cells. Description: GFP-LC3 punctae (autophagosome formation) microscopy assay. As to conditions: for mean number of punctae per cell: 10 μM. The method, then: The human GFP-LC3 expression plasmid, pEGFP-LC3 (a gift from Drs. Grazia Ambrosini and Gary K. Schwartz, MSKCC), was stably transfected into MDA-MB-468 and selected with 0.5 mg/ml G418 sulfate. Stable populations were generated and compared to parental MDA-MB-468 for Sigma1 expression and autophagic and growth inhibitory response to Sigma ligands. GFP-LC3 translocation (punctae formation) was assessed by microscopy in MDA-MB-468 (GFP-LC3) stable cell populations. For microscopy-based experiments, cells were seeded onto Lab-Tek II glass chamber slides (Nalge Nunc International). […] Images of GFP-LC3 punctae were acquired with a Zeiss Axioplan 2 Imaging widefield microscope using Axiovision LE software. Punctae were counted using the spot quantitation program in the Fluoro-Chem software package (Alpha Innotech) and confirmed in parallel by manual counting. Autophagosome formation in MDAMB-468 (GFP-LC3) cells was quantitated as the mean number of GFP-LC3 punctae per GFP positive cell.
Initially, an established immunoblot-based assay to detect microtubule associated protein light chain 3 (LC3) lipidation was used to test for the activation of autophagy. […] Since transient transfections can produce spurious GFP-LC3 aggregates, stable GFP-LC3 transfected populations of MDA-MB-468 (GFP-LC3) were generated. […]

Assay [2] has as its system MCF-7, T47D, DU145, PC3, HepG2 and Panc1 cells. The assay is described as follows: LC3BII immunoblot in a range of tumor cell lines. As to conditions: 10 μM, 24 hours. The method, then: FIG. 36, comprising FIGS. 36A-36C, illustrates Sigma1 antagonist associated autophagy. FIG. 36A, comprises representative images of translocation of GFP-tagged LC3 (LC3-GFP) into autophagosomes in MDA-MB-468 (MDA468) breast adenocarcinoma cells. Only antagonist-treated MDA-MB-468 cells presented LC3-GFP translocation to autophagosomes: […]. […] The images are representative of at least 80 fields for each treatment condition. FIG. 36B is an image of an immunoblot illustrating the finding that formation of GFP-LC3II the formation of GFP-LC3 positive punctae, an indicator of autophagosome formation. Protein extracts from MDA-MB-468 cells stably transfected with and expressing GFP-LC3, treated for 24 hours with 10 μM of the indicated Sigma1 ligand. FIG. 36C comprises images of immunoblots illustrating that increased levels of the microtubule associated protein light chain 3BII isoform (LC3BII) is another broadly used indicator of activated autophagy. […] Legend: MCF-7 (breast adenocarcinoma), T47D (breast adenocarcinoma), DU145 (prostate adenocarcinoma), PC3 (prostate adenocarcinoma), HepG2 (hepatocellular carcinoma), and Panc1 (pancreatic adenocarcinoma).
For orientation: A western blot detects proteins with antibodies after separation by electrophoresis.

The test system of assay [3] is MDA-MB-468 cells. Description: Cell size by flow cytometry (mean FSC-H, G1 phase). As to conditions: 10 μM, 24 hours. The method, then:
FIG. 11 is a graph illustrating decrease in MDAMB468 cell size associated with the Sigma1 antagonist treatment. MDA-MB-468 cells were treated for 24 hours with DMSO (control), 10 μM IPAG (antagonist), or 10 μM PRE084 (agonist). Cell size was quantitated by flow cytometry, using a Becton Dickinson FACS Calibur flow cytometer with Cell Quest software. The mean forward scatter height (FSC-H) of the G1-phase population was determined as a measure of relative cell size. Single cells were gated away from aggregated cells using an FL2-width versus FL-2 area dot plot. Mean FSC-H±S.E. was calculated from at least 4 independent determinations. For each FSC-H determination, FACS analysis was performed on 10,000 single cells. The mean FSC-H of DMSO (control) and PRE084 treated MDA-MB-468 measured 370±6 and 372±7, respectively, whereas the mean FSC-H of IPAG treated MDA-MB-468 cells was 323±4. ** P<0.01 for IPAG compared to DMSO and IPAG compared to PRE084.
FIG. 31A is a differential interference contrast (DIC) image of MDA-MB-468 breast adenocarcinoma cells treated for ˜20 hours with DMSO (drug vehicle control), 10 μM IPAG (antagonist) or 10 μM PRE084 (agonist). A twenty-micron bar is shown in each image. Data are presented as mean±SEM. FIG. 31B is a graph illustrating the finding that IPAG diminished the mean cell size (FSC-H) of MDA-MB-468 breast tumor cells in a time-responsive manner. The mean FSC-H of 370±5 at to decreased to 323±4 after 24 hours of IPAG treatment and to 267±2 after 48 hours of treatment. Two-tailed t-tests were performed to determine statistical significance. For IPAG treatment compared to control (DMSO) and Sigma agonists (SKF and PRE084), P=0.0002 at d1 and P=0.00013 at d2. Data were generated from three to five independent determinations for each time-point. […] T-47D were treated for 24 h with 1 and 10 μM IPAG, and mean FSC-H was measured. […] For FIGS. 31B-31E, the mean FSC-H was determined for each cell cycle population (i.e., G1, S, G2/M), and data is shown for G1 phase cells. […]

For assay [4], the system named is T-47D breast adenocarcinoma cells. The assay is described as follows: Cell size by flow cytometry (mean FSC-H, G1 phase). The note with it: 10 μM, 24 hours; control 412±5. The protocol: FIG. 31A is a differential interference contrast (DIC) image of MDA-MB-468 breast adenocarcinoma cells treated for ˜20 hours with DMSO (drug vehicle control), 10 μM IPAG (antagonist) or 10 μM PRE084 (agonist). A twenty-micron bar is shown in each image. Data are presented as mean±SEM. FIG. 31B is a graph illustrating the finding that IPAG diminished the mean cell size (FSC-H) of MDA-MB-468 breast tumor cells in a time-responsive manner. The mean FSC-H of 370±5 at to decreased to 323±4 after 24 hours of IPAG treatment and to 267±2 after 48 hours of treatment. Two-tailed t-tests were performed to determine statistical significance. For IPAG treatment compared to control (DMSO) and Sigma agonists (SKF and PRE084), P=0.0002 at d1 and P=0.00013 at d2. Data were generated from three to five independent determinations for each time-point. Flow cytometry was used to measure mean cell size (mean FSC-H) of T-47D breast adenocarcinoma cells. FIG. 31C is a bar graph illustrating T-47D cells treated for 24 hours with 10 μM indicated Sigma ligand. IPAG and BD 1047 (Sigma1 antagonists) diminished cell size from a mean FSC-H of 412±5 for control (DMSO) cells versus 341±7 and 381±8 for IPAG and BD1047 treated cells, respectively. […] Data represent 5 independent determinations (*P<0.05, ***P<0.001). FIG. 31D is a bar graph illustrating how IPAG (antagonist) decreases cell size in a dose responsive manner. T-47D were treated for 24 h with 1 and 10 μM IPAG, and mean FSC-H was measured. FIG. 31E is a graph illustrating that T47D cell size decreases over time. T-47D cells were treated for a total of 48 hours with 10 μM of the indicated Sigma ligands. […] Neither Sigma1 agonist, (+)-SKF10047 and PRE084, altered cell size. […] Two-tailed t-tests were performed to determine statistical significance. For IPAG treatment compared to control (DMSO) and Sigma1 agonists (SKF and PRE084), P=0.0002 at d1 and P<0.0001 at d2. For FIGS. 31B-31E, the mean FSC-H was determined for each cell cycle population (i.e., G1, S, G2/M), and data is shown for G1 phase cells. S and G2/M phase cells responded similarly (data not shown).
On the technique in general: Flow cytometry measures light scatter and fluorescence of single cells or particles in a stream.

For assay [5], the system named is PC3 and DU145 PCa cells. The assay is described as follows: UPR induction in prostate cancer cell lines. The note with it: preliminary experiments. The source says:
FIG. 15 is an image of an immunoblot illustrating induction of UPR in a prostate cancer cell line. […] P-IRE1α indicates phosphorylated IRE1α. Similar results were obtained with DU145 prostate cancer cells.
This might be due to an accumulation of ubiquitylated proteins or due to an increase in ubiquitin ligase activity. Progression of the ER stress response could be monitored by a set of markers, many of which have been directly linked to the UPR. The most extensively investigated sensors that initiate the UPR are IRE1α, PERK, and ATF6, which transduce signals to a cascade of effectors. Many of these UPR 4 effectors function as transcription factors that induce the synthesis of ER chaperones, such as GRP78/BiP and GRP94, involved in maintaining protein homeostasis.

In assay [6] the test system is MCF-7, T47D and MDA-MB-468 cells. The assay is described as follows: Cell proliferation by Alamar blue reduction, breast adenocarcinoma cultures. The note with it: after 4 days of treatment, six drug concentrations. The source says:
In vitro cell proliferation was quantitated by Alamar blue reduction. The anti-proliferative effects of six drug concentrations of the indicated drugs were quantitated after 4 days of treatment.
(In general: Alamar Blue is a resazurin reagent that responds to reducing activity.)

The subject of assay [7] is PC3 prostate cancer cells. Description: LC3BII immunoblot, prostate cancer cells. As to conditions: 10 μM, 24 hours. The protocol:
FIG. 16, comprising FIGS. 16A-16B, illustrates Sigma antagonist associated autophagy. FIG. 16A illustrates representative images of the translocation of GFP-tagged LC3 (LC3-GFP) into autophagosomes in a control (DMSO) group and a haloperidol-treated group (10 μM, antagonist). FIG. 16B is an image of a gel illustrating increased levels of the microtubule-associated protein light chain 3BII isoform (CL3BII), which is a broadly used indicator of activated autophagy.
Sigma antagonist-induced ER stress led to the activation of autophagy in several tumor cell lines, including PC3 prostate cancer cells (FIG. 16). In preliminary experiments, an immunoblot assay was performed to detect the formation of the lipid-conjugated form of microtubule associated protein light chain 3 (LC3II), a widely used marker of autophagosome formation (FIG. 16).

Assay [8] relates to MDA-MB-468 breast adenocarcinoma cells. Description: LC3 lipidation (LC3II) immunoblot. As to conditions: 10 μM, 24 hours. The protocol: Cells were lysed and proteins extracted in a modified RIPA buffer (25 mM Tris-HCl pH 7.6, 150 mM NaCl, 1% NP-40, 1% sodium deoxycholate and 0.1% SDS) supplemented with 10% glycerol (volume/volume), complete protease inhibitor cocktail (Roche), and Halt phosphatase inhibitor cocktail (Pierce). Approximately 10-20 μg of detergent soluble protein were resolved on NOVEX 10-20% polyacrylamide Tris-glycine gels (InVitrogen). Immunoblots were performed in a 20 mM Tris-buffered 137 mM saline solution (pH 7.6) containing 0.1% Tween-20 (polyoxyethylene (20) sorbitan monolaurate) and 5% (weight/volume) blotting grade non-fat dry milk (BioRad). The Lumigen PS-3 enhanced chemiluminescence kit (GE Healthcare) was used to reveal immunoblotted proteins.
Initially, an established immunoblot-based assay to detect microtubule associated protein light chain 3 (LC3) lipidation was used to test for the activation of autophagy. […] Since transient transfections can produce spurious GFP-LC3 aggregates, stable GFP-LC3 transfected populations of MDA-MB-468 (GFP-LC3) were generated. These cells were treated for 24 hours with increasing concentrations of Sigma receptor antagonists and agonists, and were compared to basal and DMSO treated controls (FIGS. 4B & 4C).

The test system of assay [9] is PC3 cells. Description: PC3 cell death by trypan blue exclusion. As to conditions: 5 μM. The method, then:
FIG. 1, comprising FIGS. 1A-1B, illustrates prostate adenocarcinoma cell death induced by Sigma1 antagonists. […] Quantitated cell death was presented as the percentage of trypan blue positive cells per drug treated population. Salient cell death occurred following ˜24-48 hours of treatment with the Sigma antagonist.
Cell death was evaluated by trypan blue exclusion assay, as well as cleaved caspase 3 (Asp 175) and cleaved PARP (Asp 214) immunoblot. Trypan blue exclusion and propidium iodide staining were used to quantify general cell death and the presence of apoptotic cell death was confirmed by immunoblot. The percentage of dead cells in a given population was determined by quantifying the number of trypan blue positive (dead) cells and dividing by the total number of trypan blue positive and negative cells.

Assay [10] relates to PC3 prostate adenocarcinoma cells. The assay is described as follows: Ubiquitin (P4D1) immunoblot, prostate adenocarcinoma cells. As to conditions: 10 μM.

For the compound `O=C(OCCN1CCOCC1)C1(c2ccccc2)CCCCC1` [PRE-084, 2-morpholin-4-ylethyl 1-phenylcyclohexane-1-carboxylate], in [1] (drug concentrations up to 100 μM, 24 hours), the “GFP-LC3 punctae per cell” value is reported as “no more than 6±2 punctae per cell”. Further, the LC3BII levels entry in [2] is given as “did not significantly alter basal autophagy”. The “mean FSC-H (relative cell size)” value in assay [3] is 372±7; in assay [4] it was “did not alter cell size”.
Consider `O=C(CCCN1CCC(O)(c2ccc(Cl)cc2)CC1)c1ccc(F)cc1` [haloperidol, 4-[4-(4-chlorophenyl)-4-hydroxy-1-piperidyl]-1-(4-fluorophenyl)-butan-1-one], for which the “mean number of punctae per cell” value in assay [1] (24 hours, knockdown of Beclin1) was 17±1 punctae per cell; in assay [1] (24 hours, without Beclin1 knockdown), 36±4 punctae per cell. Besides, the “concentration at which precipitous cell death occurred” value in assay [1] (following 24 hours of treatment) turned out to be 40 µM. The “IRE1α and BiP levels” value in assay [5] is “salient induction of IRE1α and BiP levels”. The “inhibition of cell proliferation” value in assay [6] is reported as “also inhibited cell proliferation”. The LC3BII levels result in [7] is recorded as “salient induction of LC3BII levels”. The “conversion of LC3 to LC3II (autophagosome formation)” value in assay [8] is listed as “converted LC3 to LC3II”. Also, in assay [9], the “treatment time after which salient cell death occurred” value lay in the range of 24 to 48 h. For the same compound, the “level of ubiquitinated proteins” value in assay [10] is “increased level of ubiquinated proteins”.

Source of the values: patent publication US9388126B2, “Sigma receptor ligands and methods of modulating cellular protein homeostasis using same” (Drexel University, priority 2012, dated 2016).
